Each structure is given as a SMILES string. Structures can show the parent of a compound that is named as a salt. Bounds are passed on as bounds.

The target of this assay is T1, hPRDM9 (amino acids 195-385) (Homo sapiens, UniProt Q9NQV7).
T1 construct: 1.25 nM hPRDM9 (amino acids 195-385)
T1 sequence (Q9NQV7 195-385): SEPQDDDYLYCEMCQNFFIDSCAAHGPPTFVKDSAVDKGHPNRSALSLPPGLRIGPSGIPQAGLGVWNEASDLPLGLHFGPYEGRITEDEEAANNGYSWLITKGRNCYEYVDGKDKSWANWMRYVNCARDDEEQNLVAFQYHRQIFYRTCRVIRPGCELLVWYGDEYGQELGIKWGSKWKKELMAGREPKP
Nature of the assay: PRDM9 biochemical assay (radiometric, 3[H] methyl transfer from SAM to biotinylated histone H3 peptide). Conditions: 1 nM hPRDM9, 1 μM biotinylated H3(1-25)K4 peptide, 5 μM 3[H]-SAM, 55 μM un-labeled SAM, 25° C., 30 minutes. An outline of the steps: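 Radiometric assay of ³H-methyl transfer to biotinylated H3(1-25)K4 peptide, with final concentrations 1 nM hPRDM9 (195-385), 1 μM peptide, 5 μM ³H-SAM and 55 μM unlabeled SAM. Run in pH 8.5 Tris buffer for 30 min at 25° C, quenched with guanidine-HCl and captured on streptavidin Flashplates. IC50 from four-parameter fit relative to 0.5% DMSO controls.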

With `Cc1cc(NCC2CCCN(c3nc(-c4cc(Cl)cc(Cl)c4)no3)C2)ccn1` (centres unmarked) [Compound 221], the IC50 – broadly, the concentration that gives 50% inhibition – is 5.38 µM.

Compound `Cc1cc(NC(C)C2CCN(c3nc(-c4cc(Cl)cc(Cl)c4)no3)C2)ccn1` (centres unmarked) [Compound 222] displayed an IC50 of 13.8 µM.

Turning to `Cc1cc(N2CCC3(CCCN(c4nc(-c5cc(Cl)cc(Cl)c5)no4)C3)C2)ccn1` (centres unmarked) [Compound 223], the IC50 turned out to be 12.1 µM.

As to `Cc1cc(N2CCC(Nc3nc(-c4cc(Cl)cc(Cl)c4)no3)CC2)ccn1` [Compound 225], the IC50 is ≥ 50 µM.

Turning to `Cc1cc(NC(C)C2CCN(c3nc(-c4cc(Cl)cc(Cl)c4)no3)C2)ccn1` (centres unmarked) [Compound 227], the IC50 was found to be 35.5 µM.

`Cc1cc(N2CC3C(C2)C3Nc2nc(-c3cc(Cl)cc(Cl)c3)no2)ccn1` (centres unmarked) [Compound 228]: the IC50 was determined as 34.3 µM.

Compound `Cc1cc(N2CCC3(CCC3Nc3nc(-c4cc(Cl)cc(Cl)c4)no3)CC2)ccn1` (centres unmarked) [Compound 230] yielded an IC50 of 11.5 µM. This IC50 is about 3-fold lower than that of the compound before.

On to `Cc1cc(N2CCCC3(CCN3c3nc(-c4cc(Cl)cc(Cl)c4)no3)C2)ccn1` (centres unmarked) [Compound 231], for which the IC50 amounted to 37.3 µM. This IC50 lies about 3.2-fold higher than the previous one.

Compound `N#Cc1cncc(N2CC3(CCCN(c4nc(-c5cc(Cl)cc(Cl)c5)no4)C3)C2)c1` [Compound 232] yielded an IC50 of 2 µM.

In turn, `Cc1cc(N2CCC(CNc3nc(-c4cc(Cl)cc(Cl)c4)no3)CC2)ccn1` [Compound 233] displayed an IC50 of 2.75 µM.

As for `Cc1cc(N2CC3(CC(Nc4nc(-c5cc(Cl)cc(Cl)c5)no4)C3)C2)ccn1` [Compound 234], the IC50 worked out at 8.03 µM.

In turn, `Cc1cc(N2CC[C@H](CNc3nc(-c4cc(Cl)cc(Cl)c4)no3)C2)ccn1` [Compound 235] displayed an IC50 of 29.5 µM.

The compound `COc1cccc(-c2noc(N3CCCC4(CCN(c5ccnc(C)c5)CC4)C3)n2)c1` [Compound 236] showed an IC50 of 0.4 µM.

Regarding `COc1cc(OC)cc(-c2noc(N3CCCC4(CCN(c5ccncc5OC)CC4)C3)n2)c1` [Compound 237], the IC50 is 7.3 µM.

As to `Cc1cc(NC(=O)C2CCN(c3nc(-c4cc(Cl)cc(Cl)c4)no3)CC2)ccn1` [Compound 238, 1-(3-(3,5-dichlorophenyl)-1,2,4-oxadiazol-5-yl)-N-(2-methylpyridin-4-yl)piperidine-4-carboxamide], the IC50 was ≥ 50 µM.

`Cc1cc(N2CC3(CC(NC(=O)Nc4cc(Cl)cc(Cl)c4)C3)C2)ccn1` [Compound 239, 1-(3,5-dichlorophenyl)-3-(2-(2-methylpyridin-4-yl)-2-azaspiro[3.3]heptan-6-yl)urea]: the IC50 is ≥ 50 µM.

`Cc1cc(N2CC3(CCCN(C(=O)Nc4cc(Cl)cc(Cl)c4)C3)C2)ccn1` [Compound 240]: the IC50 was ≥ 50 µM.

For the compound `CCN1CCN(c2nc(-c3cc(OC)cc(OC)c3)no2)CC12CCN(c1ccnc(C)c1)CC2` [Compound 242, 3-(3,5-dimethoxyphenyl)-5-(1-ethyl-9-(2-methylpyridin-4-yl)-1,4,9-triazaspiro[5.5]undecan-4-yl)-1,2,4-oxadiazole], the IC50 was determined as 0.155 µM. In other words, the sub-micromolar range.

For `COc1cc(CN)cc(-c2noc(N3CCN(C)C4(CCN(c5ccnc(C)c5)CC4)C3)n2)c1` [Compound 243, (3-methoxy-5-(5-(1-methyl-9-(2-methylpyridin-4-yl)-1,4,9-triazaspiro[5.5]undecan-4-yl)-1,2,4-oxadiazol-3-yl)phenyl)methanamine], 0.103 µM corresponded to half-maximal inhibition (IC50).

With `COc1cc(CN(C)C)cc(-c2noc(N3CCN(C)C4(CCN(c5ccnc(C)c5)CC4)C3)n2)c1` [Compound 244, 1-(3-methoxy-5-(5-(1-methyl-9-(2-methylpyridin-4-yl)-1,4,9-triazaspiro[5.5]undecan-4-yl)-1,2,4-oxadiazol-3-yl)phenyl)-N,N-dimethylmethanamine], half-maximal inhibition (IC50) was put at 0.131 µM.

In turn, `CNCc1cc(OC)cc(-c2noc(N3CCN(C)C4(CCN(c5ccnc(C)c5)CC4)C3)n2)c1` [Compound 245, 1-(3-methoxy-5-(5-(1-methyl-9-(2-methylpyridin-4-yl)-1,4,9-triazaspiro[5.5]undecan-4-yl)-1,2,4-oxadiazol-3-yl)phenyl)-N-methylmethanamine, HCl] came in with an IC50 of 0.083 µM.

`COc1cc(C(N)=O)cc(-c2noc(N3CCN(C)C4(CCN(c5ccnc(C)c5)CC4)C3)n2)c1` [Compound 246, 3-methoxy-5-(5-(1-methyl-9-(2-methylpyridin-4-yl)-1,4,9-triazaspiro[5.5]undecan-4-yl)-1,2,4-oxadiazol-3-yl)benzamide] returned an IC50 of 0.083 µM.

In turn, `COc1cc(OC)cc(-c2noc(NCC3(O)CN(c4ccnc(C)c4)C3)n2)c1` [Compound 247, 3-(((3-(3,5-dimethoxyphenyl)-1,2,4-oxadiazol-5-yl)amino)methyl)-1-(2-methylpyridin-4-yl)azetidin-3-ol] had an IC50 of 0.65 µM. Against the preceding compound, the IC50 is about 7.8-fold higher.

(Values after patent US20190374526A1, “Substituted Heterocyclic Compounds as Inhibitors of PRDM9” (Merck Sharp & Dohme Corp., priority 2018, published 2019).)
